According to ChEMBL document CHEMBL3875228, “Rational Design of a Boron-Modified Triphenylethylene (GLL398) as an Oral Selective Estrogen Receptor Downregulator” (ACS Med Chem Lett, 2017):

Key:
[1] = Half life in Sprague-Dawley rat at 10 mg/kg, po administered via gavage measured at 1 to 24 hrs post administration by HPLC-MS/MS analysis; assay type: ADME, organism-based; conditions: in vivo
[2] = AUC in Sprague-Dawley rat at 10 mg/kg, po administered via gavage measured at 1 to 24 hrs post administration by HPLC-MS/MS analysis; assay type: ADME, organism-based; conditions: in vivo
[3] = Cmax in Sprague-Dawley rat at 10 mg/kg, po administered via gavage measured at 1 to 24 hrs post administration by HPLC-MS/MS analysis; assay type: ADME, organism-based; parameters: dose 10 mg/kg, route oral; conditions: in vivo
cells [4] = conditions: Homo sapiens, MCF7, 120 h
Description: Cytotoxicity against tamoxifen-resistant human MCF7 cells assessed as reduction in cell viability after 5 days by Coulter counting method

[5] = Cmax in Sprague-Dawley rat assessed as GW7604 at 10 mg/kg, po administered via gavage measured at 1 to 24 hrs post administration by HPLC-MS/MS analysis; assay type: ADME, organism-based; parameters: dose 10 mg/kg, route oral; conditions: in vivo
[6] = Half life in Sprague-Dawley rat assessed as GW7604 at 10 mg/kg, po administered via gavage measured at 1 to 24 hrs post administration by HPLC-MS/MS analysis; assay type: ADME, organism-based; conditions: in vivo
[7] = AUC in Sprague-Dawley rat assessed as GW7604 at 10 mg/kg, po administered via gavage measured at 1 to 24 hrs post administration by HPLC-MS/MS analysis; assay type: ADME, organism-based; conditions: in vivo
[8] = Tmax in Sprague-Dawley rat at 10 mg/kg, po administered via gavage measured at 1 to 24 hrs post administration by HPLC-MS/MS analysis; assay type: ADME, organism-based; conditions: in vivo
cells [9] = conditions: Homo sapiens, MCF7, 120 h; remark: listed apart in the source
Description: Cytotoxicity against human MCF7 cells assessed as reduction in cell viability after 5 days by Coulter counting method

Estrogen receptor [10] = target: T1, Estrogen receptor (Homo sapiens, UniProt P03372); test: Downregulation of ERalpha in human MCF7 cells after 4 hrs by Western blot analysis; assay type: cell-based
T1 sequence (P03372 whole entry): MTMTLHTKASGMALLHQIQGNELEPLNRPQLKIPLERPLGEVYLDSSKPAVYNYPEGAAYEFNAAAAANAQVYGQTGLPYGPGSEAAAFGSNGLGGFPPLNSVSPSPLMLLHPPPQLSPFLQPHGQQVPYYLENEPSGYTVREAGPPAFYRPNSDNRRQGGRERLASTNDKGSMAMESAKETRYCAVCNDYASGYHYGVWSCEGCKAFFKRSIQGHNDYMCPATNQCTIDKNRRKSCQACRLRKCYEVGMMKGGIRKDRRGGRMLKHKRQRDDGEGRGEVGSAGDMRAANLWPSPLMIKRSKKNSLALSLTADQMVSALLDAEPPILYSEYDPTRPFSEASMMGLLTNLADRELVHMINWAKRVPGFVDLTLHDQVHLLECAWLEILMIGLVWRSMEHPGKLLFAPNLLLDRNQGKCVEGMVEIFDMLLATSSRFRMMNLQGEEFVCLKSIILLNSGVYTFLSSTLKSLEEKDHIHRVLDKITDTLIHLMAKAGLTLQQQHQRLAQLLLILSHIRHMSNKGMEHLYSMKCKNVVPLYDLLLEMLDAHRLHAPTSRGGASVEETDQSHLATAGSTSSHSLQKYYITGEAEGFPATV

Estrogen receptor [11] = target: T1, Estrogen receptor; test: biochemical
Description: Displacement of fluormone-labeled ES2 from recombinant full length human ERalpha ligand binding domain expressed in insect cells after 2 hrs by TR-FRET assay

CC/C(=C(\c1ccccc1)c1ccc(/C=C/C(=O)O)cc1)c1ccc(O)cc1
half-life [1]: 7 h | AUC [2]: 3350 ng·h/mL | Cmax [3]: 270 ng/mL | IC50 (cells [4]): 1 µM | Cmax [5]: 560 ng/mL | t1/2 [6]: 4.5 h | AUC [7]: 8670 ng·h/mL | Tmax [8]: 3 h | IC50 (cells [9]): 1.9 µM

CCC(=C(c1ccc(/C=C/C(=O)O)cc1)c1ccc(B(O)O)cc1)c1ccccc1
half-life [1]: 3.9 h | IC50 (Estrogen receptor [10]): 0.21 µM | AUC [2]: 36900 ng·h/mL | Cmax [3]: 3510 ng/mL | IC50 (cells [4]): 1.2 µM | Tmax [8]: 1 h | IC50 (cells [9]): 1.8 µM | IC50 (Estrogen receptor [11]): 0.00114 µM

CC/C(=C(\c1ccc(O)cc1)c1ccc(OCCN(C)C)cc1)c1ccccc1 [AFIMOXIFENE]
IC50 (cells [4]): 20 µM | IC50 (cells [9]): 0.0034 µM
